Measurements taken from patent US8828988B2 (Tetraphase Pharmaceuticals, Inc., priority 2009, dated 2014).
Converted amounts (≈) assume the structure as drawn. Like-named read-outs stand apart in the source and are kept apart here.

What was measured:
[1] = tested on: Staphylococcus aureus SA101, ATCC 29213, MSSA; test: MIC assay, SA101; format: cell-based
[2] = tested on: Staphylococcus aureus SA100, ATCC 13709, MSSA, Smith strain; test: MIC assay, SA100; format: cell-based; conditions: Table 9, read-out: MIC S. aureus ATCC 13709
[3] = tested on: Staphylococcus aureus SA161, HA-MRSA, tetracycline-resistant, tet(M); test: MIC assay, SA161; format: cell-based
[4] = tested on: Staphylococcus aureus SA158, tetracycline-resistant tet(K); test: MIC assay, SA158; format: cell-based
[5] = tested on: Enterococcus faecalis EF103, ATCC 29212; test: MIC assay, EF103; format: cell-based
[6] = tested on: Enterococcus faecalis EF159, tetracycline-resistant, tet(M); test: MIC assay, EF159; format: cell-based
[7] = tested on: Streptococcus pneumoniae SP106, ATCC 49619; test: MIC assay, SP106; format: cell-based
[8] = tested on: Streptococcus pneumoniae SP160, tetracycline-resistant, tet(M); test: MIC assay, SP160; format: cell-based
[9] = tested on: Escherichia coli EC107, ATCC 25922; test: MIC assay, EC107; format: cell-based
[10] = tested on: Escherichia coli EC155, tetracycline-resistant, tet(A); test: MIC assay, EC155; format: cell-based
[11] = tested on: Acinetobacter baumannii AB110, ATCC 19606; test: MIC assay, AB110; format: cell-based; conditions: ATCC19606, Table 9, read-out: MIC A.baum AB110
[12] = tested on: Pseudomonas aeruginosa PA111, ATCC 27853; test: MIC assay, PA111; format: cell-based; conditions: ATCC27853, Table 9, read-out: MIC P. aeruginosa ATCC 27853
[13] = tested on: Enterobacter cloacae EC108, ATCC 13047; test: MIC assay, EC108; format: cell-based; conditions: ATCC13047, Table 9, read-out: MIC Enterobacter cloaceae ATCC 13047
[14] = tested on: Klebsiella pneumoniae KP109, ATCC 13883; test: MIC assay, KP109; format: cell-based; conditions: ATCC13883, Table 9, read-out: MIC Klebsiella pneum ATCC 13883
[15] = tested on: Klebsiella pneumoniae KP153, tetracycline-resistant, tet(A), MDR, ESBL+; test: MIC assay, KP153; format: cell-based; conditions: Table 9, read-out: MIC Klebsiella pneum KP153 (tet)A
[16] = tested on: E. faecalis clinical isolates; test: MIC50, MIC90 and MIC range, panel of clinical isolates (Example 20); format: cell-based; conditions: 24 isolates, in µg/mL
Protocol: (§1) The assays were run as follows.
(§2) Both values, as well as the MIC range (the lowest and highest MIC value observed for a collection of organisms), were determined for the isolates listed in Table 3.

[17] = tested on: S. aureus clinical isolates; test: as above; format: cell-based; conditions: MRSA, 30 isolates; in µg/mL
Protocol: as §1, §2

[18] = tested on: S. pneumoniae clinical isolates; test: as above; format: cell-based; conditions: 19 isolates, in µg/mL
Protocol: as §1, §2

[19] = tested on: E. coli DH10B(pBAD-tetK), expressing tet(K); test: MIC against recombinant E. coli expressing tet(K); format: cell-based; conditions: for MIC: Escherichia coli
Text: (§3) Constructs were transformed into E. coli DH10B for expression. Recombinant strains were pre-induced under optimized conditions with L-arabinose prior to use as inocula in CLSI standardized MIC assays.

[20] = tested on: E. coli DH10B(pBAD-tetM), expressing tet(M); test: MIC against recombinant E. coli expressing tet(M); format: cell-based
Text: as §3

[21] = tested on: S. pneumoniae isolates (Eurofins-Medinet, recent clinical isolates); test: MIC50 and MIC90 analysis (Example 22)
Protocol: (§4) Frozen bacterial strains were thawed and subcultured onto Mueller Hinton Broth (MHB) or other appropriate media (Streptococcus requires blood and Haemophilus requires hemin and NAD). Following incubation overnight, the strains were subcultured onto Mueller Hinton Agar and again incubated overnight. […] Isolated colonies were selected to prepare a starting inoculum equivalent to a 0.5 McFarland standard. […] Antibiotics (stored frozen, thawed and used within 3 hours of thawing) and compounds were further diluted to the desired working concentrations.
(§5) The assays were run as follows. Fifty μL of MHB was added to wells 2-12 of a 96-well plate. One hundred μL of appropriately diluted antibiotic or compound was added to well 1. Fifty μL of antibiotics or compound was removed from well 1 and added to well 2 and the contents of well 2 mixed by pipetting up and down five times. Fifty μL of the mixture in well 2 was removed and added to well 3 and mixed as above. Serial dilutions were continued in the same manner through well 12. Fifty μL was removed from well 12 so that all contained 50 μL. Fifty μL of the working inoculum was then added to all test wells. A growth control well was prepared by adding 50 μL of working inoculum and 50 μL of MHB to an empty well. The plates were then incubated at 37° C. overnight, removed from the incubator and each well was read on a plate reading mirror. The lowest concentration (MIC) of test compound that inhibited the growth of the bacteria was recorded.
(§6) MIC, MIC50 and MIC90 values were determined according to CLSI methodology. S. pneumoniae and H. influenzae isolates were obtained from Eurofins-Medinet and are recent clinical isolates. S. aureus strains were collected from various geographical sources.

[22] = tested on: H. influenzae isolates (Eurofins-Medinet, recent clinical isolates); test: MIC50 and MIC90 analysis (Example 22)
Protocol: as §4, §5, §6

## C[C@H]1c2cccc(O)c2C(=O)C2=C(O)[C@]3(O)C(=O)C(C(N)=O)=C(O)[C@@H](N(C)C)[C@@H]3[C@@H](O)[C@@H]21 [Doxycycline, doxycycline, reference compound]
[1]; Table 8, read-out: MIC S. aureus ATCC 29213
  MIC: 0.13 µg/mL (≈ 0.293 µM)
[1]; Table 9, read-out: MIC S. aureus ATCC 29213
  MIC: 0.5 µg/mL (≈ 1.13 µM)
[2]
  MIC: 0.13 µg/mL (≈ 0.293 µM)
[3]; Table 8, read-out: MIC S. aureus MRSA, tetM
  MIC: 8 µg/mL (≈ 18 µM)
[3]; Table 9, read-out: MIC MRSA (tet)M SA161
  MIC: 8 µg/mL (≈ 18 µM)
[4]; Table 8, read-out: MIC S. aureus tetK
  MIC: 2 µg/mL (≈ 4.5 µM)
[4]; Table 9, read-out: MIC S. aureus SA158 (tet)K
  MIC: 2 µg/mL (≈ 4.5 µM)
[5]; Enterococcus faecalis, ATCC29212, Table 8, read-out: MIC E. faecalis ATCC 29212
  MIC: 4 µg/mL (≈ 9 µM)
[5]; Table 9
  MIC E. faecalis ATCC 29212: 4 µg/mL (≈ 9 µM)
[6]; Table 8, read-out: MIC E. faecalis tetM
  MIC: 4 µg/mL (≈ 9 µM)
[6]; Table 9, read-out: MIC E. faecalis EF159 (tet)M
  MIC: 8 µg/mL (≈ 18 µM)
[7]; ATCC49619, Table 8, read-out: MIC S. pneumoniae ATCC 49619
  MIC: 0.06 µg/mL (≈ 0.135 µM)
[7]; ATCC49619, Table 9, read-out: MIC S. pneum ATCC 49619
  MIC: 0.25 µg/mL (≈ 0.563 µM)
[8]; Table 8, read-out: MIC S. pneumoniae tetM
  MIC: 4 µg/mL (≈ 9 µM)
[8]; Table 9, read-out: MIC S. pneum SP160 (tet)M
  MIC: 8 µg/mL (≈ 18 µM)
[9]; ATCC25922, Table 8, read-out: MIC E. coli ATCC 25922
  MIC: 1 µg/mL (≈ 2.25 µM)
[9]; ATCC25922, Table 9, read-out: MIC E. coli ATCC 25922
  MIC: 1 µg/mL (≈ 2.25 µM)
[10]; Table 8, read-out: MIC E. coli tetA
  MIC: 32 µg/mL (≈ 72 µM)
[10]; Table 9, read-out: MIC E. coli EC155 (tet)A
  MIC: 32 µg/mL (≈ 72 µM)
[11]
  MIC: 2 µg/mL (≈ 4.5 µM)
[12]
  MIC: > 32 µg/mL
[13]
  MIC: 4 µg/mL (≈ 9 µM)
[14]
  MIC: 2 µg/mL (≈ 4.5 µM)
[15]
  MIC: 32 µg/mL (≈ 72 µM)
[16]
  MIC Range: 0.063-16
[17]
  MIC Range: 0.063-8
[18]
  MIC Range: <=0.016-16
[19]; read-out: MIC, TetK Induced
  MIC: 8 µg/mL
[19]; read-out: MIC, Uninduced
  MIC: 2 µg/mL
[19]; ratio of TetK induced to uninduced MIC
  MIC ratio, TetK induced to uninduced: 4
[19]; tet(K) expressed vs not expressed
  MIC in the presence of tet(K) expression, fold higher than when tet(K) was not expressed: 4 fold
[20]; Escherichia coli, read-out: MIC, Uninduced
  MIC: 4 µg/mL
[20]; ratio of MICs
  Ratio (TetM induced / Uninduced): 8
[21]; S. pneumoniae (n = 20)
  MIC Range: ≦0.016-16 μg/ml
[21]; Streptococcus pneumoniae
  MIC50: 8 µg/mL (≈ 18 µM)
  MIC90: 8 µg/mL (≈ 18 µM)
[22]; H. influenzae (n = 12)
  MIC Range: 0.5 to 4 µg/mL
[22]; Haemophilus influenzae
  MIC50: 1 µg/mL (≈ 2.25 µM)
  MIC90: 4 µg/mL (≈ 9 µM)
